Test results from ChEMBL document CHEMBL4400520, “Benzofuran-isatin-imine hybrids tethered via different length alkyl linkers: Design, synthesis and in vitro evaluation of anti-tubercular and anti-bacterial activities as well as cytotoxicity” (Eur J Med Chem, 2019).
≈ marks a conversion by molar mass, not a printed value.

Legend:
[1] = system: Mycobacterium tuberculosis; experiment: Antitubercular activity against Mycobacterium tuberculosis H37Rv; assay type: functional
[2] = Cytotoxicity against African green monkey Vero cells assessed as reduction in cell viability after 72 hrs by MTT assay; assay type: cell-based; conditions: chlorocebus sabaeus, Vero cells
[3] = Selectivity index, ratio of CC50 for African green monkey Vero cells to MIC for Mycobacterium tuberculosis H37Rv; assay type: toxicity; conditions: read-out: Selectivity Index
[4] = system: Staphylococcus epidermidis; experiment: Antibacterial activity against methicillin-sensitive Staphylococcus epidermidis; assay type: functional
[5] = system: Staphylococcus epidermidis; experiment: Antibacterial activity against methicillin-resistant Staphylococcus epidermidis; assay type: functional
Staphylococcus aureus [6] = experiment: Antibacterial activity against methicillin-sensitive Staphylococcus aureus; assay type: functional
Staphylococcus aureus [7] = experiment: Antibacterial activity against methicillin-resistant Staphylococcus aureus; assay type: functional
Enterococcus faecalis = experiment: Antibacterial activity against Enterococcus faecalis; assay type: functional
Enterococcus faecium = experiment: Antibacterial activity against Enterococcus faecium; assay type: functional
Escherichia coli = experiment: Antibacterial activity against Escherichia coli; assay type: functional
Klebsiella pneumoniae = experiment: Antibacterial activity against Klebsiella pneumoniae; assay type: functional
Pseudomonas aeruginosa = experiment: Antibacterial activity against Pseudomonas aeruginosa ATCC 27853; assay type: functional
[8] = system: Acinetobacter calcoaceticus; experiment: Antibacterial activity against Acinetobacter calcoaceticus; assay type: functional
Enterobacter cloacae = experiment: Antibacterial activity against Enterobacter cloacae; assay type: functional
Klebsiella aerogenes = experiment: Antibacterial activity against Enterobacter aerogenes; assay type: functional
Proteus mirabilis = experiment: Antibacterial activity against Proteus mirabilis; assay type: functional
Citrobacter freundii = experiment: Antibacterial activity against Citrobacter freundii; assay type: functional

Row | Compound | MIC [1] | CC50 at 72 h [2] | selectivity ratio [3] | MIC90 [4] | MIC90 [5] | MIC90 (Staphylococcus aureus [6]) | MIC90 (Staphylococcus aureus [7]) | MIC90 (Enterococcus faecalis) | MIC90 (Enterococcus faecium) | MIC90 (Escherichia coli) | MIC90 (Klebsiella pneumoniae) | MIC90 (Pseudomonas aeruginosa) | MIC90 [8] | MIC90 (Enterobacter cloacae) | MIC90 (Klebsiella aerogenes) | MIC90 (Proteus mirabilis) | MIC90 (Citrobacter freundii)
1 | CCO/N=C1\C(=O)N(CCCCOc2ccc3oc(-c4ccc(OC)cc4)c(C(=O)OCC)c3c2)c2ccccc21 | < 0.016 µg/mL | 64 µg/mL (≈ 115 µM) | > 4000 | 0.5 µg/mL (≈ 0.898 µM) | 2 µg/mL (≈ 3.59 µM) | 1 µg/mL (≈ 1.8 µM) | 1 µg/mL (≈ 1.8 µM) | 4 µg/mL (≈ 7.19 µM) | 64 µg/mL (≈ 115 µM) | 1 µg/mL (≈ 1.8 µM) | 2 µg/mL (≈ 3.59 µM) | 2 µg/mL (≈ 3.59 µM) | 0.5 µg/mL (≈ 0.898 µM) | 1 µg/mL (≈ 1.8 µM) | 2 µg/mL (≈ 3.59 µM) | 2 µg/mL (≈ 3.59 µM) | 2 µg/mL (≈ 3.59 µM)
2 | CCOC(=O)c1c(-c2ccc(F)cc2)oc2ccc(OCCCCCCN3C(=O)C(=O)c4cc(F)ccc43)cc12 | < 0.016 µg/mL | 512 µg/mL (≈ 935 µM) | > 32000 | 1 µg/mL (≈ 1.83 µM) | 4 µg/mL (≈ 7.31 µM) | 1 µg/mL (≈ 1.83 µM) | 2 µg/mL (≈ 3.65 µM) | 2 µg/mL (≈ 3.65 µM) | 16 µg/mL (≈ 29.2 µM) | 0.25 µg/mL (≈ 0.457 µM) | 1 µg/mL (≈ 1.83 µM) | 2 µg/mL (≈ 3.65 µM) | 4 µg/mL (≈ 7.31 µM) | 0.5 µg/mL (≈ 0.913 µM) | 0.125 µg/mL (≈ 0.228 µM) | 0.06 µg/mL (≈ 0.11 µM) | 0.06 µg/mL (≈ 0.11 µM)
3 | CCO/N=C1\C(=O)N(CCCCCOc2ccc3oc(-c4ccc(OC)cc4)c(C(=O)OCC)c3c2)c2ccc(F)cc21 | 0.031 µg/mL (≈ 0.0527 µM) | 32 µg/mL (≈ 54.4 µM) | 1030 | 1 µg/mL (≈ 1.7 µM) | 4 µg/mL (≈ 6.8 µM) | 8 µg/mL (≈ 13.6 µM) | 4 µg/mL (≈ 6.8 µM) | 4 µg/mL (≈ 6.8 µM) | 32 µg/mL (≈ 54.4 µM) | 0.125 µg/mL (≈ 0.212 µM) | 4 µg/mL (≈ 6.8 µM) | 4 µg/mL (≈ 6.8 µM) | 8 µg/mL (≈ 13.6 µM) | 0.25 µg/mL (≈ 0.425 µM) | 0.5 µg/mL (≈ 0.849 µM) | 0.25 µg/mL (≈ 0.425 µM) | 0.125 µg/mL (≈ 0.212 µM)
4 | CCOC(=O)c1c(-c2ccc(OC)cc2)oc2ccc(OCCCCCN3C(=O)/C(=N\OC)c4ccccc43)cc12 | 0.049 µg/mL (≈ 0.088 µM) | 32 µg/mL (≈ 57.5 µM) | 1030 | 0.5 µg/mL (≈ 0.898 µM) | 4 µg/mL (≈ 7.19 µM) | 2 µg/mL (≈ 3.59 µM) | 4 µg/mL (≈ 7.19 µM) | 4 µg/mL (≈ 7.19 µM) | 32 µg/mL (≈ 57.5 µM) | 0.25 µg/mL (≈ 0.449 µM) | 2 µg/mL (≈ 3.59 µM) | 1 µg/mL (≈ 1.8 µM) | 1 µg/mL (≈ 1.8 µM) | 0.25 µg/mL (≈ 0.449 µM) | 1 µg/mL (≈ 1.8 µM) | 0.5 µg/mL (≈ 0.898 µM) | 1 µg/mL (≈ 1.8 µM)
5 | CCOC(=O)c1c(-c2ccc(OC)cc2)oc2ccc(OCCCCCN3C(=O)/C(=N\OC)c4cc(F)ccc43)cc12 | < 0.016 µg/mL | 32 µg/mL (≈ 55.7 µM) | > 2000 | 0.5 µg/mL (≈ 0.87 µM) | 4 µg/mL (≈ 6.96 µM) | 4 µg/mL (≈ 6.96 µM) | 2 µg/mL (≈ 3.48 µM) | 1 µg/mL (≈ 1.74 µM) | 16 µg/mL (≈ 27.8 µM) | 0.125 µg/mL (≈ 0.218 µM) | 0.5 µg/mL (≈ 0.87 µM) | 1 µg/mL (≈ 1.74 µM) | 1 µg/mL (≈ 1.74 µM) | 2 µg/mL (≈ 3.48 µM) | 0.125 µg/mL (≈ 0.218 µM) | 0.06 µg/mL (≈ 0.104 µM) | 0.125 µg/mL (≈ 0.218 µM)
6 | CCOC(=O)c1c(-c2ccc(OC)cc2)oc2ccc(OCCCCCCN3C(=O)C(=O)c4ccccc43)cc12 | 0.062 µg/mL (≈ 0.114 µM) | 256 µg/mL (≈ 473 µM) | 4130 | 0.25 µg/mL (≈ 0.462 µM) | 4 µg/mL (≈ 7.39 µM) | 1 µg/mL (≈ 1.85 µM) | 1 µg/mL (≈ 1.85 µM) | 2 µg/mL (≈ 3.69 µM) | 8 µg/mL (≈ 14.8 µM) | 0.06 µg/mL (≈ 0.111 µM) | 0.5 µg/mL (≈ 0.923 µM) | 4 µg/mL (≈ 7.39 µM) | 2 µg/mL (≈ 3.69 µM) | 0.125 µg/mL (≈ 0.231 µM) | 0.5 µg/mL (≈ 0.923 µM) | 0.125 µg/mL (≈ 0.231 µM) | 0.25 µg/mL (≈ 0.462 µM)
7 | CO[C@H]1/C=C/O[C@@]2(C)Oc3c(C)c(O)c4c(O)c(c(/C=N/N5CCN(C)CC5)c(O)c4c3C2=O)NC(=O)/C(C)=C\C=C\[C@H](C)[C@H](O)[C@@H](C)[C@@H](O)[C@@H](C)[C@H](OC(C)=O)[C@@H]1C [RIFAMPIN] | 0.078 µg/mL (≈ 0.0948 µM) |  | 6560 |  |  |  |  |  |  |  |  |  |  |  |  |  | 
8 | CCOC(=O)c1c(-c2ccc(OC)cc2)oc2ccc(OCCCCCCN3C(=O)/C(=N\NC(N)=S)c4ccccc43)cc12 | < 0.016 µg/mL | 8 µg/mL (≈ 13 µM) | > 500 | 1 µg/mL (≈ 1.63 µM) | 4 µg/mL (≈ 6.51 µM) | 1 µg/mL (≈ 1.63 µM) | 0.5 µg/mL (≈ 0.813 µM) | 1 µg/mL (≈ 1.63 µM) | 64 µg/mL (≈ 104 µM) | 1 µg/mL (≈ 1.63 µM) | 8 µg/mL (≈ 13 µM) | 4 µg/mL (≈ 6.51 µM) | 4 µg/mL (≈ 6.51 µM) | 1 µg/mL (≈ 1.63 µM) | 2 µg/mL (≈ 3.25 µM) | 1 µg/mL (≈ 1.63 µM) | 2 µg/mL (≈ 3.25 µM)
9 | NNC(=O)c1ccncc1 [ISONIAZID] | 0.078 µg/mL (≈ 0.569 µM) | 256 µg/mL (≈ 1870 µM) | 3280 |  |  |  |  |  |  |  |  |  |  |  |  |  | 
10 | CN[C@H](CC(C)C)C(=O)N[C@H]1C(=O)N[C@@H](CC(N)=O)C(=O)N[C@H]2C(=O)N[C@H]3C(=O)N[C@H](C(=O)N[C@H](C(=O)O)c4cc(O)cc(O)c4-c4cc3ccc4O)[C@H](O)c3ccc(c(Cl)c3)Oc3cc2cc(c3O[C@@H]2O[C@H](CO)[C@@H](O)[C@H](O)[C@H]2O[C@H]2C[C@](C)(N)[C@H](O)[C@H](C)O2)Oc2ccc(cc2Cl)[C@H]1O [VANCOMYCIN] |  |  |  | 1 µg/mL (≈ 0.69 µM) | 1 µg/mL (≈ 0.69 µM) | 0.5 µg/mL (≈ 0.345 µM) | 1 µg/mL (≈ 0.69 µM) | 4 µg/mL (≈ 2.76 µM) | 1 µg/mL (≈ 0.69 µM) |  |  |  |  |  |  |  | 
